Consider one compound from publication PMC6628435, “Chemical Synthesis, Proper Folding, Nav Channel Selectivity Profile and Analgesic Properties of the Spider Peptide Phlotoxin 1” (Toxins, 2019).

The term IC50 denotes the midpoint of a concentration-inhibition curve.

For assay [1], the system named is Nav1.2/β1. The experiment in a line: Two-electrode voltage-clamp on Xenopus laevis oocytes expressing Nav1.2/β1. The conditions noted are these: 1 µM; voltage of maximum sodium influx, holding −90 mV; oocytes TEVC; n ≥ 3. The assay is classed as cell-based. From the text: (§1) Using the two-electrode voltage-clamp technique on Xenopus laevis oocytes, the effect of PhlTx1 was also compared on eight different cloned vertebrate Nav channels co-expressed with the β1 subunit (Nav1.1-1.8/β1) and on the neuronal insect Nav channel, para, co-expressed with the tipE subunit (Figure 3 and Figure 4). […] Normalized current-voltage relationships (I-V curve) of Nav1.2/β1 and Nav1.3/β1 channels seemed to be shifted towards more negative potentials when PhlTx1 was applied, but shifts were not statistically significant […] (Figure 4). The activation phase of the other studied Nav channel subtypes was not affected. No obvious alteration in channel availability was observed, except a 5-mV negative shift for Nav1.3/β1, although that was also non-significant (p > 0.05).
(§2) Figure 4 1 µM of PhlTx1 was tested on Nav1.1/β1, Nav1.2/β1, Nav1.3/β1, Nav1.4/β1, Nav1.5/β1, Nav1.6/β1, Nav1.8/β1 and para/tipE (n ≥ 3). Left column: current traces were evoked by a 50-ms depolarization to the voltage of maximum sodium influx, depending on the Nav studied, from a holding potential of −90 mV. At 1 µM PhlTx1, all studied Nav channels, except Nav1.4/β1, were blocked for about 10% (no toxin: *). The current of Nav1.4/β1 was reduced for about 35 ± 5%. Middle column: normalized I-V curves reveal no significant shift of the activation voltage (p > 0.05). […]
A general note: Two-electrode voltage clamp holds a large cell at a set potential and records current.

The subject of assay [2] is Nav1.3/β1. Nature of the assay: Two-electrode voltage-clamp on Xenopus laevis oocytes expressing Nav1.3/β1. In kind it is cell-based.
Text: as §1, §2

Assay [3] deals with Kv3.4. The experiment in a line: Ion channel selectivity screen, voltage-clamp, heterologous expression in Xenopus laevis oocytes and/or COS cells. The assay is classed as cell-based. The note with it: 1 μM PhlTx1.
Assay [4] deals with T1, hNav1.4 (Homo sapiens, UniProt P35499).
T1 construct: expressed in transfected cells; host or cells: CHO cells
Nature of the assay: Automated patch-clamp dose-response on hNav1.4 expressed in CHO cells. In kind it is cell-based. The note with it: 4 to 13 cells per concentration, read-out: calculated IC50.

Assay [5] deals with human Nav1.7 channel. The conditions noted are these: ref [47]; cited from earlier work.
Assay [6] deals with formalin-induced spontaneous pain behavior. The experiment in a line: Formalin pain test in mice after intrathecal injection. The note with it: intrathecal, 10 µL; PhlTx1 100 pmoles (n = 5), morphine 0.25 mg (n = 6); 10 µL 5% formalin in hindpaw; versus vehicle. In kind it is in vivo, C57BL/6J mice.
For assay [7], the system named is Nav1.1/β1. The experiment in a line: Two-electrode voltage-clamp on Xenopus laevis oocytes expressing Nav1.1/β1. The conditions noted are these: 1 µM; voltage of maximum sodium influx, holding −90 mV; oocytes TEVC; n ≥ 3. The assay is classed as cell-based.
Text: as §1, §2

Bridge positions count the residues as written; N and C are the ends. Peptide text beside a SMILES is read from it.

T1 sequence (P35499 whole entry): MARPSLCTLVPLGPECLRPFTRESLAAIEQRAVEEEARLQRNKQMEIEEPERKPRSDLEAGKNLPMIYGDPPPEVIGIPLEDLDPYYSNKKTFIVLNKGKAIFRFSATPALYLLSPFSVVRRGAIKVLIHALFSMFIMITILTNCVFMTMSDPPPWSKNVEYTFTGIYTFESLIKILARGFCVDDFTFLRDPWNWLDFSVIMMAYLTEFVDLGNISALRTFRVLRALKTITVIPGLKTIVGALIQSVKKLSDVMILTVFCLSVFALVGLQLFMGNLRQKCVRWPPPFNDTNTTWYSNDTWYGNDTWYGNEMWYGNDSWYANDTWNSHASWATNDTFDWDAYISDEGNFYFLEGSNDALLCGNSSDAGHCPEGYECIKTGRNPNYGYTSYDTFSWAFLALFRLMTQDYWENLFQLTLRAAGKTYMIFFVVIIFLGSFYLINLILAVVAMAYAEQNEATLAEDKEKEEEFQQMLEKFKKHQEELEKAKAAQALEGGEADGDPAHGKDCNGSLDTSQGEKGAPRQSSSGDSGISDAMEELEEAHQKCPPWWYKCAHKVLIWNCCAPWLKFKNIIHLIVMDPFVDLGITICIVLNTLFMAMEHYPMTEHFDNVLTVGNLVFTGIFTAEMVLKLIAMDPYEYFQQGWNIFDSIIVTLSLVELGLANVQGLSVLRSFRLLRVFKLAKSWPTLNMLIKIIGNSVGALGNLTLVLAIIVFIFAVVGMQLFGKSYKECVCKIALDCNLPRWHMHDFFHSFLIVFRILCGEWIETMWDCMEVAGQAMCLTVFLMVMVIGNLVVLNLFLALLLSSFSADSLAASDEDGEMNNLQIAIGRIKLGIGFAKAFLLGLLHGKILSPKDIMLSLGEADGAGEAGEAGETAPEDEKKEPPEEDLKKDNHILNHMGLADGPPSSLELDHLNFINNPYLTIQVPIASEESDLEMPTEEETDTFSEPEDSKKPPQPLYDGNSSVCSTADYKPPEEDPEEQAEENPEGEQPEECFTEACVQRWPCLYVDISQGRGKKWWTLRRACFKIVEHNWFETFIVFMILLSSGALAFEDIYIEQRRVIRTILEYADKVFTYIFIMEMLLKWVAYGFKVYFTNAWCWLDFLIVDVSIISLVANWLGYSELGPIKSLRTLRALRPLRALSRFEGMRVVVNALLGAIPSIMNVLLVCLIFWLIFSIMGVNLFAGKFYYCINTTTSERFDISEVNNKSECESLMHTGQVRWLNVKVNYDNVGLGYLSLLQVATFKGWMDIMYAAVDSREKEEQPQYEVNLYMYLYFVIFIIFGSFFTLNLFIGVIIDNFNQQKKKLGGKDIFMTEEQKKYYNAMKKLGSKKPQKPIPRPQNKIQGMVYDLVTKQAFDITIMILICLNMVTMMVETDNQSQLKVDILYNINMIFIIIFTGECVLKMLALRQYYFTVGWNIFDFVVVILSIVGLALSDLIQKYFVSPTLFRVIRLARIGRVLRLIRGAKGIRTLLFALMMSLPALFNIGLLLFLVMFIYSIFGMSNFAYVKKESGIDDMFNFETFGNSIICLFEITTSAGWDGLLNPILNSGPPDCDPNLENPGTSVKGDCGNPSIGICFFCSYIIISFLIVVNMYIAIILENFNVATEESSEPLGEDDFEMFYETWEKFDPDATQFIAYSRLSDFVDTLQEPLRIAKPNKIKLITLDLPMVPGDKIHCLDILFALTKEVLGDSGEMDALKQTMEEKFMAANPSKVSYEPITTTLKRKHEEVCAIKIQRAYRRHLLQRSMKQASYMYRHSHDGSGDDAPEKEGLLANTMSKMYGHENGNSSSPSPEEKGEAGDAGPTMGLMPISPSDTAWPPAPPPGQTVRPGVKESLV

Turning to `CC(C)C[C@@H]1NC(=O)[C@@H](NC(=O)[C@H](C)N)CSSC[C@@H]2NC(=O)[C@@H]3CSSC[C@@H](C(=O)N[C@@H](CCCNC(=N)N)C(=O)N[C@@H](Cc4ccc(O)cc4)C(=O)N[C@@H](CCCCN)C(=O)N[C@@H](CC(C)C)C(=O)N[C@@H](Cc4ccccc4)C(=O)O)NC(=O)[C@H](Cc4c[nH]c5ccccc45)NC(=O)[C@@H]4CCCN4C(=O)[C@H](Cc4ccc(O)cc4)NC(=O)[C@H](CCCCN)NC(=O)[C@H](Cc4c[nH]c5ccccc45)NC(=O)[C@H](CCC(=O)O)NC(=O)[C@H](CSSC[C@H](NC(=O)[C@H](CO)NC(=O)[C@H](CC(=O)O)NC(=O)[C@H](Cc4c[nH]c5ccccc45)NC(=O)[C@H](CCC(N)=O)NC(=O)CNC1=O)C(=O)N[C@@H](CC(=O)O)C(=O)N1CCC[C@H]1C(=O)N[C@@H](CCCCN)C(=O)N[C@@H](C)C(=O)N[C@@H](CO)C(=O)N[C@@H](CCCCN)C(=O)N3)NC(=O)[C@H](C)NC(=O)[C@H](Cc1ccc(O)cc1)NC(=O)[C@H](CC(N)=O)NC(=O)[C@@H]1CCCN1C2=O` [PhlTx1, Phlotoxin-1] (H-ACLGQWDSCDPKASKCCPNYACEWKYPWCRYKLF-OH; disulfide 2-17, 9-22, 16-29; N-terminus and C-terminus assumed), the “block of sodium current” value in assay [1] is listed as “about 10%”; in assay [2] (1 µM, voltage of maximum sodium influx, holding −90 mV, oocytes TEVC, n ≥ 3) it was “about 10%”; in assay [7] it was “about 10%”. Also, the “negative shift in channel availability” value in assay [2] (1 µM PhlTx1, non-significant (p > 0.05)) is listed as 5 mV. In assay [3], the “current inhibition at the voltage of maximum ion flux” value is on record as around 20%. In addition, the values for the 50% inhibitory concentration (IC50) in assay [4] and in assay [5] were above 3000 nM and 250 nM, respectively. Further, the “formalin-induced pain behavior (licking), Phase II (inflammation, 10–45 min)” value in assay [6] is “substantially reduced the response”. Moreover, in assay [6], the “formalin-induced pain behavior, Phase I (acute pain, 0–10 min)” value was “substantially reduced the response”.
